What was measured:
[1] = In vitro inhibition of linoleic acid lipid peroxidation (AAPH); details: 100 μM; anti-lipid peroxidation
Summary of the method: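 Thermal decomposition of AAPH generated alkylperoxy radicals that oxidized sodium linoleate in aqueous dispersion at 37 °C. Formation of conjugated diene hydroperoxides was followed by absorbance at 234 nm, with Trolox as reference.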

MCF-7 cells = assay: MTT viability assay; type: cell-based; details: Homo sapiens, MCF7, 48 h
Description: (§1) HeLa, MCF-7, U251, U87, MDA-MB-435, and MDA-MB-231 cancer cell lines were maintained in incubators at 37 °C with 5% CO2 in DMEM medium supplemented with 10% (v/v) fetal bovine serum (FBS) and antibiotics/antimycotics. All cell lines used in this study originate from the Laboratory of Biochemistry, Department of Chemistry, Aristotle University of Thessaloniki. They are low-passage, mycoplasma-free cancer cell lines that have been extensively used over the past 25 years in numerous studies across various fields of cancer research, including drug cytotoxicity testing.
(§2) All cell lines tested were seeded in 96-well plates at a concentration of 6 × 10^3 cells per well, except HeLa, which were seeded at 3 × 10^3 cells per well. The day after, cells were exposed to increasing concentrations of the compounds for 48 h. Cell viability was determined using the 3-(4,5-dimethylthiazol-2-yl)-2,5-diphenyltetrazolium bromide (MTT) assay, a colorimetric assessment of cellular metabolic activity as described previously. Absorbance values from treated samples were normalized to those of untreated controls, which were assigned to a 100% viability value.

HeLa cells = assay: MTT viability assay; type: cell-based; details: Homo sapiens, 48 h
Description: as §1, §2

ovine COX-2 = biological target: T1, ovine COX-2 (Ovis aries, UniProt P79208); assay: In vitro inhibition of ovine cyclooxygenase-2
T1 sequence (P79208 17-603): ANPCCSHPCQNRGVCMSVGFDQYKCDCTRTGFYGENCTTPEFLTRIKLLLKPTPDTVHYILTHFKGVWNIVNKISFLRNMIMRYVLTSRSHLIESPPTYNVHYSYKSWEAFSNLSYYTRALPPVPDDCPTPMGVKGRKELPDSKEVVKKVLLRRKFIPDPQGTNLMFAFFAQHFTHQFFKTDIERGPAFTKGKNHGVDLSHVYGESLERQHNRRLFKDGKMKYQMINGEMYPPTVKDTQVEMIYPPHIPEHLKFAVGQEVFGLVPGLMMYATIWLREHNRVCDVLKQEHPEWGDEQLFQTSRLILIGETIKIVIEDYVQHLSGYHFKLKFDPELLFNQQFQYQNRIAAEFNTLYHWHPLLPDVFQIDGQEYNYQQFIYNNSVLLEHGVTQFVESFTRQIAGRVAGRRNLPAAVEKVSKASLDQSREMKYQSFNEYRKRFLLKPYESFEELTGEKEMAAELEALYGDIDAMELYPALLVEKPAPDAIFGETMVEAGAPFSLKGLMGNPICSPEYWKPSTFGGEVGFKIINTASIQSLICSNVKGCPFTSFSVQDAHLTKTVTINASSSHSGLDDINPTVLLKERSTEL
Description: In order to prevent this in the in vitro experiment used for testing COX inhibition activity of the new molecules, a co-substrate like N,N,N′,N′-tetramethyl-p-phenylenediamine (TMPD) is included, as it undergoes co-oxidation by PGG2. The oxidized TMPD has a maximum absorbance at 590 nm. […] To ensure maximum enzyme activity, heme is added to the reaction mixture during the in vitro assay for ovine COX-2 inhibition and COX-1 inhibition [63].
The in vitro COX-2 inhibitory activity was assessed using arachidonic acid (AA) as a substrate and N,N,N′,N′-tetramethyl-p-phenylenediamine (TMPD) as a co-substrate in a Tris-HCl buffer (pH 8.5), following the reported method [89]. To the test tube, 10 µL of the compound dissolved in DMSO was added to a mixture containing 730 µL of Tris-HCl buffer (pH 8.5), 50 µL of heme, 10 µL of COX-2 enzyme, and 100 µL of TMPD. The absorbance was measured at 590 nm. […] A blank determination was conducted as a negative control.

bovine serum albumin = biological target: T2, bovine serum albumin (Bos taurus, UniProt P02769); assay: In vitro inhibition of albumin denaturation; details: heat denaturation, 60 °C 10 min
T2 construct: bovine serum albumin solution (fraction V); purchased Merck and Sigma-Aldrich; host or cells: bovine serum (fraction V)
T2 sequence (P02769 25-607): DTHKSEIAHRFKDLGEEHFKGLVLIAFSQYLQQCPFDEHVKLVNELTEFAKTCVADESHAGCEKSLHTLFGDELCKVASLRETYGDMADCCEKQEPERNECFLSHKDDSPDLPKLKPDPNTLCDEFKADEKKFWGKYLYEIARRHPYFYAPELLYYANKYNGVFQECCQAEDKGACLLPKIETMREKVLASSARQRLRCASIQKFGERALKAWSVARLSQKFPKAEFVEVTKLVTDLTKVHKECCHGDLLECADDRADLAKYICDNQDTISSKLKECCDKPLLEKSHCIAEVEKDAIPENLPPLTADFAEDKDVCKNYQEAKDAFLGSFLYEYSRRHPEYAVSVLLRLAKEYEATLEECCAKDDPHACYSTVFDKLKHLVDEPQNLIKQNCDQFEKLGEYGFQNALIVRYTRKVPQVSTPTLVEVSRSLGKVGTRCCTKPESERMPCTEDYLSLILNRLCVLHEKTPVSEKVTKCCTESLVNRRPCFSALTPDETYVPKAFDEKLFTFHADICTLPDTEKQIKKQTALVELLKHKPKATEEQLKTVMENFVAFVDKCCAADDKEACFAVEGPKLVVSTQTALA
Summary of the method: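 Bovine serum albumin (fraction V, 1% w/v in phosphate buffer, pH 7.4) mixed with test compound, held 15 min at 37 °C, then heated 10 min at 60 °C. After cooling, turbidity read as absorbance at 660 nm against a DMSO blank.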

COX-1 = biological target: T3, COX-1 (Homo sapiens, UniProt P23219); assay: In vitro inhibition of COX-1; type: biochemical
T3 construct: purchased Merck and Sigma-Aldrich
T3 sequence (P23219 24-599): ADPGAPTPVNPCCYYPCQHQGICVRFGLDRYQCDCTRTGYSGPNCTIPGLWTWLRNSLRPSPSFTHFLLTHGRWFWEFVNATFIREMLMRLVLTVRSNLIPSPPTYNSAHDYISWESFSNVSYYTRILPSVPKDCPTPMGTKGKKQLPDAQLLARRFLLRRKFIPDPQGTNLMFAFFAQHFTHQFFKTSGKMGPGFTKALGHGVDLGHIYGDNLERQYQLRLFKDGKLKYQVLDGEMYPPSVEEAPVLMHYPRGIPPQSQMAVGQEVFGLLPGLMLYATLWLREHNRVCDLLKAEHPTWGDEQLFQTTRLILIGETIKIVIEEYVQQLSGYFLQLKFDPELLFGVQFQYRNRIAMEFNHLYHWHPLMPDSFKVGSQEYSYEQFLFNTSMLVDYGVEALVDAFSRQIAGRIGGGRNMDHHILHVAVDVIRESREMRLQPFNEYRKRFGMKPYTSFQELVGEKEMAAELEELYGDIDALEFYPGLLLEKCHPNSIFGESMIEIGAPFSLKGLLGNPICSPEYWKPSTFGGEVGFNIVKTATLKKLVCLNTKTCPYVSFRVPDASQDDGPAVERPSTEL
Excerpt: Enzyme inactivation can occur due to the accumulation of hydroperoxides formed from arachidonic acid or other fatty acid substrates. In order to prevent this in the in vitro experiment used for testing COX inhibition activity of the new molecules, a co-substrate like N,N,N′,N′-tetramethyl-p-phenylenediamine (TMPD) is included, as it undergoes co-oxidation by PGG2. The oxidized TMPD has a maximum absorbance at 590 nm. COX enzymes also depend on heme (Fe^3+-protoporphyrin IX) as a cofactor, which can dissociate during purification. To ensure maximum enzyme activity, heme is added to the reaction mixture during the in vitro assay for ovine COX-2 inhibition and COX-1 inhibition.
Cyclooxygenase (COX) activity was measured using arachidonic acid (AA) as the substrate and N,N,N′,N′-tetramethylphenylenediamine (TMPD) as the co-substrate following the reported method. […] The substrate oxidation was monitored at room temperature by recording the increase in absorbance at 590 nm. Absorbance due to the spontaneous oxidation of TMPD was subtracted from the initial oxidation rate observed in the presence of AA. The inhibitory activity of the test compounds at a concentration of 100 μM was evaluated after a 6-min pre-incubation with the enzyme in the presence of heme and TMPD.

Structure (SMILES)	AAPH Inh. at 100 μΜ [1]	EC50 (MCF-7 cells)	EC50 (HeLa cells)	IC50 (ovine COX-2)	Albumin (inhibition of albumin denaturation) (bovine serum albumin)	inhibition at 100 µM (COX-1)	COX-1 at 100 μM (% inhibition) (COX-1)
C/C(=N\O)c1ccc(NC(=O)COC(=O)/C=C/c2cccs2)cc1 [Compound 6c, 2-((4-((E)-1-(Hydroxyimino)ethyl)phenyl)amino)-2-oxoethyl (E)-3-(thiophen-2-yl)acrylate]	4%	> 100 µM	83 µM	35 µM	no	0%	did not show any inhibition activity and no
C/C(=N\O)c1ccc(NC(=O)COC(=O)/C(=C/c2cccs2)c2ccccc2)cc1 [Compound 6i, 2-((4-((E)-1-(Hydroxyimino)ethyl)phenyl)amino)-2-oxoethyl (E)-2-phenyl-3-(thiophen-2-yl)acrylate]	28%	38.3 µM	36.7 µM	80 µM	no	16.7%	–
O=C(/C=C/c1cc2ccccc2s1)OCc1c(-c2ccccc2)no[n+]1[O-] [Compound 9e, (E)-3-(((3-(Benzo[b]thiophen-2-yl)acryloyl)oxy)methyl)-4-phenyl-1,2,5-oxadiazole 2-oxide]	67%	58.5 µM	55.5 µM	8.25 µM	no	0%	did not show any inhibition activity and no

— PMC12693419, “Design, Synthesis, Biological Evaluation, and In Silico Studies of Novel Multitarget Cinnamic Acid Hybrids” (Molecules, 2025)
